Laboratory results: PubChem BioAssay (NCI)
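Growth conditions: 96-well plates. Treatment: test compound, 48 hours, 5 concentrations. Analysis: linear interpolation between bracketing concentrations; unreached endpoints set to highest concentration. The concentration for 50% growth inhibition is given as GI50. TGI marks complete inhibition of growth.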

How the values were obtained:
Experiment in all cases: DTP human tumour cell line panel, 48 h
SW-620 colon = tested on: SW-620 colon
U251 CNS = tested on: U251 CNS
MDA-MB-231 breast = tested on: MDA-MB-231 breast
DU-145 prostate = tested on: DU-145 prostate
SK-MEL-2 melanoma = tested on: SK-MEL-2 melanoma
EKVX NSCLC = tested on: EKVX NSCLC
SN12C renal = tested on: SN12C renal
UACC-257 melanoma = tested on: UACC-257 melanoma
COLO 205 colon = tested on: COLO 205 colon
UACC-62 melanoma = tested on: UACC-62 melanoma

SMILES	GI50 (SW-620 colon) [µM]	TGI (SW-620 colon) [µM]	GI50 (U251 CNS) [µM]	TGI (U251 CNS) [µM]	GI50 (MDA-MB-231 breast) [µM]	TGI (MDA-MB-231 breast) [µM]	GI50 (DU-145 prostate) [µM]	TGI (DU-145 prostate) [µM]	GI50 (SK-MEL-2 melanoma) [µM]	TGI (SK-MEL-2 melanoma) [µM]	GI50 (EKVX NSCLC) [µM]	TGI (EKVX NSCLC) [µM]	GI50 (SN12C renal) [µM]	TGI (SN12C renal) [µM]	GI50 (UACC-257 melanoma) [µM]	TGI (UACC-257 melanoma) [µM]	GI50 (COLO 205 colon) [µM]	TGI (COLO 205 colon) [µM]	GI50 (UACC-62 melanoma) [µM]	TGI (UACC-62 melanoma) [µM]
C=C1C(=O)O[C@H]2[C@H]1CC/C(COC(=O)NCc1ccc(Cn3c(=O)sn(CCCCC)c3=O)cc1)=C\CC[C@@]1(C)O[C@@H]21	1.31	2.85	2.2	4.93	1.72	3.46	1.68	3.04	2.41	5.46	1.85	5.59	1.71	3.72	1.57	3.03	1.78	3.33	1.59	3.08
CCCCCCCCCc1ccc(OCCOCCOCCOCCOCCOCCOCCOCCOCCO)cc1	1.19	5.55	0.458	1.25	0.668	1.51	1.24	4.65	0.876	1.96	0.452	5.78	0.61	1.59	0.0567	0.812	0.243	0.829	0.379	1.25
N=c1ccc2nc3ccc(N)cc3sc-2c1	3.92	23.5	3.45	10.5	3.56	20.3	16.8	40.8	6.08	22.5	6.63	81.1	3.19	11	2.75	11.1	2.25	12.5	2.93	8.38
CC(=O)c1ccc2c(c1)N(CCCN1CCN(CCO)CC1)c1ccccc1S2	1.82	3.61	1.94	4.06	1.96	4.51	4.55	15.8	2.11	6.02	4.83	21	3.88	17	1.85	3.51	1.74	3.5	1.88	3.83
CCOC(=O)c1sc(-c2ccc(OS(=O)(=O)C[C@]34CCC(CC3=O)C4(C)C)c(C=O)c2)nc1C	1.04	2.69	0.694	1.43	1.03	2.66	1.55	> 50	1.13	2.69	1.3	> 50	1.41	4.58	1.26	3.66	1.07	2.62	0.745	1.76
CCCN(CCC)c1ccc(C=O)c(Cl)c1	20.9	> 100	6.6	29.9	18.9	43.7	48	> 100	15	44.3	21.4	> 76.6	28.1	> 100	0.273	0.979	4.2	17	0.317	1.81
CCSc1ccc([C@@H]2[C@@H](O)C(=O)N2c2cc(OC)c(OC)c(OC)c2)cc1	< 0.0121	> 100	< 0.0144	16	0.0395	29.4	0.0252	> 50.3	0.0221	28.4	0.0226	53	0.0441	22.2	0.0877	35	0.0163	0.072	< 0.01	20.1
C=CC(C)(C)n1cc(C2=C(O)C(=O)C(c3cn(C(C)(C)C=C)c4ccccc34)=C(O)C2=O)c2ccccc21	–	53.8	–	10.4	–	8.27	–	18.9	–	4.22	–	14	–	7.03	–	9.73	–	30	–	4.33
O=C(c1ccc2ccccc2c1)c1nc2cc(F)ccc2[n+]([O-])c1C(F)(F)F	17.3	37	18.1	33.9	18.8	38	20.9	45.8	18.7	35.8	18.2	38	26.6	71.4	17.4	35.3	15.9	38.1	17	32.6
COc1ccc(C2=NC(=O)NC2c2ccc(OC)cc2)cc1 (centres undefined)	4.65	> 100	7.85	> 100	12.3	> 100	23	> 100	5.34	52.8	13	64.6	15.4	> 100	36.3	> 100	6.47	21.3	4.15	32.7
COc1cc(C2=NN(C(C)=O)C(c3cc(OC)c(OC)c(OC)c3)C2)ccc1O (centres undefined)	0.296	> 100	0.42	> 100	1.79	> 100	0.383	> 33.9	–	> 100	1.13	> 100	0.882	> 100	> 93.6	> 100	0.274	1.05	0.471	> 100
CC(NC(=O)Cc1ccc(C(F)(F)P(=O)(OCc2ccc([N+](=O)[O-])o2)N(C)CCCCCl)cc1)c1ccc(OCC2CCCCC2)c(C(N)=O)c1 (centres undefined)	6.82	15.8	3.33	10.9	15.7	35.3	6.2	16.7	6.48	> 48.5	4.92	16.7	5.35	10.9	17.5	34.7	3.94	11.2	4.97	10.2
